Results published in patent US20190060296A1, “DISCOVERY OF SMALL MOLECULES THAT TARGET THE ANDROGEN RECEPTOR AND USES” (Massachusetts Institute of Technology, priority 2017, published 2019).

What follows are compounds tested against T1, AR-v7 (Homo sapiens, UniProt P10275) (assay: dual luciferase reporter assay, stable LNCaP cell line with AR-v7 under DOX control and MMTV-driven firefly luciferase). Conditions: Reporter Assay at 24 hours; dose response starting at 50 μM, serially diluted 1:1; LNCaP cells.
T1 construct: expressed in transfected cells
T1 sequence (P10275 1-644 isoform P10275-3): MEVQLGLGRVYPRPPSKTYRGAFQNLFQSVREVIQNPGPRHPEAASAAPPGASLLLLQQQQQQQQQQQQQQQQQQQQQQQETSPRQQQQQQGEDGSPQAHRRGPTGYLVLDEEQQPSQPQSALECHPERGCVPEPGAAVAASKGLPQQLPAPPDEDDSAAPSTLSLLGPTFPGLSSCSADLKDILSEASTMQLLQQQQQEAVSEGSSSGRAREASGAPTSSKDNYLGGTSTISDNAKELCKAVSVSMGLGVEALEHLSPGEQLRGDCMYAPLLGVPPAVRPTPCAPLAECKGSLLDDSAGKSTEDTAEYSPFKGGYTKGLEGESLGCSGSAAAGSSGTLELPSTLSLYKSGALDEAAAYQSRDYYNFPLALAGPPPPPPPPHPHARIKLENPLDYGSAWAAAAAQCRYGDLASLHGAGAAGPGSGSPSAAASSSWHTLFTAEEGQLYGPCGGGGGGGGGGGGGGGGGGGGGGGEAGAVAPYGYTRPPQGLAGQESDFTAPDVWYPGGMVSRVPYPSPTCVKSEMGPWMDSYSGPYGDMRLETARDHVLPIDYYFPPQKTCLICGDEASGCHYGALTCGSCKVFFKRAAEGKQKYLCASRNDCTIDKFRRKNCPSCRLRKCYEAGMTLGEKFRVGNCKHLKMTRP
Format: cell-based
Text: CMV-driven Renilla luciferase is also included as a control. The relative luciferase activity is the firefly luciferase activity normalized to the Renilla luciferase activity. A “dual-reporter assay” is conceptually similar to the single reporter assay described above, and can correct for experimental variation (e.g., cell number, transfection efficiency, etc.). In the case of a dual-reporter assay, a “reporter system” is used, where cells are transfected with two plasmids, the first plasmid comprising the regulatory gene of interest and a first reporter, and the second plasmid comprising a constitutive promoter and a second reporter, wherein the second reporter and the first reporter have biologically distinct activities. The ratio of the first reporter activity (e.g., controlled by the regulatory gene of interest) relative to the second reporter activity (e.g., controlled by the constitutive promoter) corrects for experimental variation. […] In certain embodiments, one or more compounds selected from the SMM screen are submitted to a screen comprising a dual-luciferase assay, the dual-luciferase assay further comprising (i) a first vector comprising a first promoter and a first reporter and (ii) a second vector comprising a second promoter and a second reporter. In certain embodiments, the first vector comprises a first promoter and a first reporter, wherein the first promoter is the MMTV promoter and the first reporter is firefly luciferase. Activation of the androgen receptor, or variant thereof, will promote increased expression of the MMTV-driven firefly luciferase. In certain embodiments, the second vector comprises a second promoter and a second reporter, wherein the second promoter is the cytomegalovirus (CMV) promoter and the second reporter is Renilla luciferase. The CMV promoter is constitutively activated, leading to a basal expression level of Renilla luciferase that serves as a control and can be used to normalize the MMTV-driven firefly luciferase expression level. […] In an embodiment, the first luciferase is firefly luciferase. In an embodiment, the second luciferase is Renilla luciferase. […] In certain embodiments, the firefly luciferase is under control of an MMTV promoter that contains one or more androgen response element (ARE). […] In total, 50,000 molecules were screened against the androgen receptor variant AR-v7 (exons 1-3 truncate of AR-FL) using a small molecule microarray (SMM) (see FIG. 1). […] PSA was used as a readout for both AR-v7 and AR activity in the qPCR assay in LNCaP cells. Selected SMM assay positives were administered to cells at two doses (10 and 30 μM) and PSA expression was evaluated using the Single Shot qPCR kit (BioRad) (see FIG. 2).

IC50 [µM] | Compound
6.86 | Cc1c(C(=O)N(C)Cc2cccc3ncccc23)sc2ncnc(NCC3C[C@@H]4C=C[C@H]3C4)c12 (stereo partly drawn) [KI-ARv-02, 4-((((1R,4R)-bicyclo[2.2.1]hept-5-en-2-yl)methyl)amino)-N,5-dimethyl-N-(quinolin-5-ylmethyl)thieno[2,3-d]pyrimidine-6-carboxamide]
50 | CCNc1ncc(-c2cc(-c3cc(C)sc3C)nc(N)c2C#N)cn1 [KI-ARv-05, 2-amino-6-(2,5-dimethyl-3-thienyl)-4-[2-(ethylamino)pyrimidin-5-yl]nicotinonitrile]
24.7 | CS(=O)(=O)N1CCC(Oc2cccc(C(=O)NCC[C@@H]3C[C@@H]4C=C[C@H]3C4)c2)CC1 (relative stereo) [KI-ARv-08, N-{2-[(1S*,2S*,4S*)-bicyclo[2.2.1]hept-5-en-2-yl]ethyl}-3-{[1-(methylsulfonyl)-4-piperidinyl]oxy}benzamide]
14.8 | Cc1cc(N2CCC(NCc3cccc(N4CCCC4)c3)CC2)nc(N)n1 [KI-ARv-06, 4-methyl-6-{4-[(3-pyrrolidin-1-ylbenzyl)amino]piperidin-1-yl}pyrimidin-2-amine]
> 50 | COc1ccc(N2CCN(C(=O)c3sc4ncnc(NC[C@H]5C[C@@H]6C=C[C@H]5C6)c4c3C)CC2)cc1 (relative stereo) [KI-ARv-09, N-[(1R*,2S*,4R*)-bicyclo[2.2.1]hept-5-en-2-ylmethyl]-6-{[4-(4-methoxyphenyl)-1-piperazinyl]carbonyl}-5-methylthieno[2,3-d]pyrimidin-4-amine]
5.43 | O=C(NCC[C@@H]1C[C@@H]2C=C[C@H]1C2)c1cccc(OC2CCN(C(=O)C3CC3)CC2)c1 (relative stereo) [KI-ARv-01, N-{2-[(1S*,2S*,4S*)-bicyclo[2.2.1]hept-5-en-2-yl]ethyl}-3-{[1-(cyclopropylcarbonyl)-4-piperidinyl]oxy}benzamide]
11.3 | Fc1ccc(N2CCCN(CC3[C@H]4CNC[C@@H]34)CC2)cc1 (relative stereo) [KI-ARv-04, (1R*,5S*,6r)-6-{[4-(4-fluorophenyl)-1,4-diazepan-1-yl]methyl}-3-azabicyclo[3.1.0]hexane]
12.5 | Cc1c(C(=O)NCc2ccncc2)sc2ncnc(NC[C@H]3C[C@@H]4C=C[C@H]3C4)c12 (relative stereo) [RO3682, 4-{[(1R*,2S*,4R*)-bicyclo[2.2.1]hept-5-en-2-ylmethyl]amino}-5-methyl-N-(4-pyridinylmethyl)thieno[2,3-d]pyrimidine-6-carboxamide]
